Like-named read-outs stand apart in the source and are kept apart here. Each block holds one molecule with its values, some of them ahead of it.
How the values were obtained:
[1] = Ross-Miles foam height assay of aldonamides (Examples 81-84); type: physicochemical; settings: 0.1% aldonamide, 40° C. (if not soluble, about 5°-10° C. above Krafft point), 0 ppm hardness; for Foam Height Final: after 10 minutes
Procedure: In the Ross-Miles method, 200 mL of a suffactant solution contained in a pipette of specified dimensions with a 2.9 -mm-i.d. orifice is allowed to fall 90 cm onto 50 mL of the same solution contained in a cylindrical vessel maintained at a given temperature by means of a water jacket. The height of the foam produced in the cylindrical vessel is read immediately after all the solution has run out of the pipette and then again after a given amount of time.
Using this method, the foam production (initial foam height in mm) and foam stability (final foam height after 10 minutes in mm) were measured at 0.1% aldonamtde concentration, 40° C. and 0 ppm (parts per million) hardness.

[2] = Clarity of prototype shampoo compositions with sodium lauryl sulfate (Example 87); type: physicochemical; settings: room temperature, 6 months
Procedure: (§1) The prototype shampoo composition is as follows:
(§2) The above formulations were prepared by admixing the above ingredients in listed order and heating the mixture to about 80° C. with rapid stirring. The mixture was then cooled to about 40° C., placed in a clear jar and stored at room temperature for 6 months.

[3] = Krafft point determination; type: physicochemical; settings: 0.1% in water
Procedure: The temperature at and above which surfactants begin to form micelles instead of precipitates is referred to as the Krafft point (Tk) and at this temperature the solubility of a surfactant becomes equal to its CMC (numerical value at which micelles are formed).
The Krafft point was measured by preparing 650 ml of a 0.1% or 1.0% dispersion of aldonamide in water by weight. If the surfactant was soluble at room temperature, the solution was slowly cooled to 0° C. […] (less than zero). If it precipitated out of solution, the temperature at which precipitation occurs was taken as the Krafft point.
If the surfactant was insoluble at room temperature, the dispersion was slowly heated until the solution became homogeneous. It was then slowly cooled until precipitation occurred. The temperature at which the surfactant precipitates out of solution upon cooling was taken as the Krafft point.

[4] = Rosen, cited from earlier work
[5] = Effectiveness in reducing surface tension (Example 93); type: physicochemical; settings: 60 °C, estimated by extrapolation
Excerpt: As mentioned before, surface tension reduction depends on the replacement of water molecules at the interface by surfactant molecules, therefore the effectiveness of a surfactant in reducing interfacial surface tension should reflect the saturated concentration of surfactant at the interface relative to that in bulk liquid phase. During this process the surface tension of water steadily decreases as bulk phase surfactant concentration increases. This will continue until the concentration reaches the critical micelle concentration (CMC), above which the surface tension remains nearly unchanged and the interface is saturated with surfactant. The surface tension at the CMC is therefore very close to the minimum interfacial tension or maximum surface pressure that the system can achieve. The surface pressure at this point, IIcmc, is a suitable measure of the effectiveness of a surfactant in reducing surface tension and is given as:
.PI.cmc 20+2.3nRT(Γmax) log [CMC/C20 ]
n=1 which represents the number of ions whose surface concentration changes with the change in liquid phase suffactant concentration.
CMC/C20 =is the ratio of the critical micelle concentration to the bulk phase surfactant concentration necessary to reduce the surface tension of water by 20 dyn/cm.

[6] = Rosen, cited from earlier work; remark: listed apart in the source
[7] = 25 °C, Rosen; cited from earlier work
[8] = Rosen, cited from earlier work; remark: listed apart in the source
[9] = Effectiveness of adsorption, surface excess concentration at surface saturation (Example 94); type: physicochemical; settings: 60 °C, estimated by extrapolation
Excerpt: The surface excess concentration at surface saturation (Γmax) is defined as a measure of the effectiveness of surfactant adsorption at the water/air interface and represents the maximum value to which adsorption can be obtained. Effectiveness of adsorption is related to the interfacial area occupied by the surfactant molecule. The smaller the effective cross-sectional area of a surfactant at the interface, the greater its effectiveness of adsorption. The effectiveness of adsorption is an important factor in determining surfactant properties such as detergency, foaming, wetting or emulsification. While not wishing to be bound by theory, it is believed that surfactants that absorb effectively at the interface tend have tightly packed coherent interfacial films and often provide better surfactant benefits than those with loosely packed noncoherent films. The effectiveness of adsorption of C8 /C10 oxypropyl D-gluconamide was determined using the Gibbs equation given as: […]
ergs/cm^2 (which is equivalent to the slope of a plot of γ

[10] = Area per molecule at the water/air interface (Example 95); type: physicochemical; settings: 60 °C, estimated by extrapolation
Excerpt: The area per molecule of a surfactant at the water/air interface provides information on the degree of packing and the orientation of the adsorbed surfactant molecule. While not wishing to be bound by theory, it is believed that surfactants that have small area per molecule values tend to pack more closely at the interface than those with large area per molecule values. From the surface excess concentration at surface saturation (Γmax), the area per molecule (am) of C8 /C10 oxypropyl D-gluconamide was determined and is given by:
am =1×10^16 /Nav Γmax

[11] = Foam stability and enhancement of prototype shampoo (sodium/ammonium lauryl sulfate), Ross-Miles Foam Height assay (Example 86); type: physicochemical; settings: 45° C., 4.0% additive in prototype shampoo
Procedure: The results were compared to identical compositions comprising petrochemitcally derived foam stabilizing agents, in particular, alkanolamides and alcohol ethoxylates. The prototype shampoo composition is as follows:
The compositions were prepared by admixing the ingredients in listed order with rapid stirring at 45°-50° C. Foam stability and enhancement were measured at 0.1% based on sodium and ammonium lauryl sulfate (0.16% total solids) at 45° C. and 0 or 120 parts per million (ppm) hardness calcium:magnesium ion 2:1.

[12] = Viscosity of prototype shampoo compositions of Example 86, Brookfield Digital Viscometer; type: physicochemical; settings: 4.0% thickener, Example 86 shampoo, 22° C.
Excerpt: The results are as follows:

[13] = Viscosity of prototype shampoo compositions with sodium lauryl sulfate, Brookfield Digital Viscometer (Example 88); type: physicochemical; settings: vs no thickener
Procedure: as §1, §2
It is well known that the viscosity of a liquid composition comprising of anionic surfactant can be modified by the addition of inorganic salts, such as sodium chloride. However, in the absence of an organic modifier, high levels of salt may be necessary to achieve the required viscosity which may lead to problems of storage at cold temperature or even salting out certain ingredients. In practice, however, the viscosity of a liquid composition is modified by the simultaneous addition of thickener and small amounts of inorganic salt (viscosity cobuilder). The combined effect is greater than either one alone. The viscosity of the above prototype shampoo composition comprising various amounts of heteroatom containing alkyl aldonamide compound is as follows: […]

[14] = Foam stability and enhancement of sodium dodecyl benzene sulfonate, Ross-Miles method (Example 85); type: physicochemical; settings: 30 minutes, 10:90 mole %, 35° C., pH 10
Procedure: The triolein/calcium stearate mixture was dispersed to the above solutions using a high speed shear mixer at 60° C. and then cooled to 35° C. The triolein/calcium stearate mixture represents an extreme type of antifoam behavior found in sebum soil.
The foaming behavior of the above surfactants was determined by the Ross-Miles Foam Height Assay (Ross, J. and Miles, G. D. Am Soc. for Testing Material Method Dl173-63 Philadelphia, Pa. (1953); Oil & Soap (1958) 62:1260) and the cylinder shaking method.
In the Ross-Miles method, 200 mL of a surfactant solution contained in a pipette of specified dimensions with a 2.9-mm-i.d. orifice is allowed to fall 90 cm onto 50 mL of the same solution contained in a cylindrical vessel maintained at a given temperature by means of a water jacket. The height of the foam produced in the cylindrical vessel is read after 30 minutes has elapsed.
The foam stability and enhancement of the heteroatom containing alkyl aldonamides was further determined using a 10:90 mole percent solution of C8 /C10 oxypropyl D-gluconamide (C8 /C10 OPG): sodium dodecyl benzene sulfonate (C12 LAS) and compared to identical solutions of dodecyl D-gluconamide (C12 Gluc): sodium dodecyl benzene sulfonate in the presence and absence of the triolein/calcium stearate antifoam.

[15] = 3.0% thickener in […] sodium lauryl sulfate shampoo
[16] = 5.0% thickener in […] sodium lauryl sulfate shampoo

- Foam Height Initial [1]: 199 mm
- Foam Height Final [1]: 6 mm
- Appearance (Time) [2, 15]: Precipitate (1 week)
- Appearance (Time) [2, 16]: Precipitate (5 days)
Molecule: CCCCCCCCCCNC(=O)[C@H](O)[C@@H](O)[C@H](O)[C@H](O)CO [C10 D-Gluconamide]

- Appearance (Time) [2, 15]: Precipitate (1 day)
- Appearance (Time) [2, 16]: Precipitate (2 hours)
Molecule: Coco D-Gluconamide

- Foam Height Initial [1]: 168 mm
- Foam Height Final [1]: 158 mm
- Krafft Point (0.1%) [3]: < 0 °C
- Appearance (Time) [2, 15]: Clear
- Appearance (Time) [2, 16]: Clear
Molecule: Octyl/Decyloxypropyl D-Lactobionamide [C8 /C10 Oxypropyl D-Lactobionamide]

- Foam Height Initial [1]: 0 mm
- Foam Height Final [1]: 0 mm
- Appearance (Time) ([2]; 4.0% thickener in […] sodium lauryl sulfate shampoo): Precipitate (2 weeks)
- Appearance (Time) [2, 16]: Precipitate (2 weeks)
Molecule: CCCCCCCCCNC(=O)[C@H](O)[C@@H](O)[C@H](O)[C@H](O)CO [C9 D-Gluconamide]

- Foam Height Initial [1]: 186 mm
- Foam Height Final [1]: 182 mm
- Appearance (Time) [2, 15]: Clear
- Appearance (Time) [2, 16]: Clear
Molecule: Cocoaminopropyl D-Gluconamide

- .PI.cmc (surface pressure) [5]: 40.7 dyn/cm
- Γmax (surface excess concentration at surface saturation) [9]: 3.01 × 10^-10 mole/cm^2
- am (area per molecule) [10]: 53.3 Å^2
Molecule: CCCCCCCCCCCCOCCOCCOCCOCCO [Dodecyltetra(oxyethylene) Ether]
- .PI.cmc (surface pressure) ([4]; 25 °C): 43.4 dyn/cm
- CMC/C20 ([4]; 25 °C): 13.7
- .PI.cmc (surface pressure) ([4]; 40 °C): 42.0 dyn/cm
- CMC/C20 ([4]; 40 °C): 11.8
- Γmax (surface excess concentration at surface saturation) ([6]; 25 °C): 3.63 × 10^-10 mole/cm^2
- Γmax (surface excess concentration at surface saturation) ([6]; 40 °C): 3.41 × 10^-10 mole/cm^2
- pC20 [7]: 5.34
- am (area per molecule) ([8]; 25 °C): 45.7 Å^2
- am (area per molecule) ([8]; 40 °C): 48.7 Å^2

Molecule: CCCCCCCCCCCC(=O)N(CCO)CCO [Lauramide DEA, lauramide diethanolamine]
- Final FH after 60 Min. ([11]; 0 ppm hardness): 151 mm
- Initial FH ([11]; 0 ppm hardness): 190 mm
- Final FH after 60 Min. ([11]; 120 ppm hardness): 126 mm
- Initial FH ([11]; 120 ppm hardness): 159 mm
- Viscosity [12]: 2376 Centipoise

- Final FH after 60 Min. ([11]; 0 ppm hardness): 70 mm
- Initial FH ([11]; 0 ppm hardness): 178 mm
- Final FH after 60 Min. ([11]; 120 ppm hardness): 53 mm
- Initial FH ([11]; 120 ppm hardness): 148 mm
- Viscosity [12]: 1720 Centipoise
Molecule: cocoamide monoethanolamine [Cocoamide MEA]

- Foam Height Initial [1]: 200 mm
- Foam Height Final [1]: 110 mm
- Appearance (Time) [2, 15]: Clear
- Appearance (Time) [2, 16]: Precipitate (5 months)
- Increase (viscosity) ([13]; 3.0% thickener): 120 ×
- Increase (viscosity) ([13]; 5.0% thickener): 1373 ×
Molecule: CCCCCCCCCCCCOCCCNC(=O)[C@H](O)[C@@H](O)[C@H](O)[C@H](O)CO [C12 Oxypropyl D-Gluconamide]

- .PI.cmc (surface pressure) [5]: 41.4 dyn/cm
- Γmax (surface excess concentration at surface saturation) [9]: 3.83 × 10^-10 mole/cm^2
- am (area per molecule) [10]: 45.4 Å^2
Molecule: CCCCCCCCCCCCOCCOCCOCCO [Dodecyltri(oxyethylene) Ether]
- .PI.cmc (surface pressure) ([4]; 25 °C): 44.1 dyn/cm
- CMC/C20 ([4]; 25 °C): 11.4
- .PI.cmc (surface pressure) ([4]; 40 °C): 43.1 dyn/cm
- Γmax (surface excess concentration at surface saturation) ([6]; 25 °C): 3.98 × 10^-10 mole/cm^2
- Γmax (surface excess concentration at surface saturation) ([6]; 40 °C): 3.90 × 10^-10 mole/cm^2
- pC20 [7]: 5.34
- am (area per molecule) ([8]; 25 °C): 41.7 Å^2
- am (area per molecule) ([8]; 40 °C): 42.5 Å^2

Molecule: sodium dodecyl benzene sulfonate [C12 LAS]
- Foam Height, No Antifoam [14]: 131 mm
- Foam Height, With Antifoam ([14]; triolein/calcium stearate 1 g/L): 61 mm

- .PI.cmc (surface pressure) [5]: 40.7 dyn/cm
- Γmax (surface excess concentration at surface saturation) [9]: 3.16 × 10^-10 mole/cm^2
- am (area per molecule) [10]: 52.3 Å^2
Molecule: CCCCCCCCCCCCOCCOCCOCCOCCOCCO [Dodecylpenta(oxyethylene) Ether]
- .PI.cmc (surface pressure) ([4]; 25 °C): 41.5 dyn/cm
- CMC/C20 ([4]; 25 °C): 15.0
- .PI.cmc (surface pressure) ([4]; 40 °C): 41.2 dyn/cm
- Γmax (surface excess concentration at surface saturation) ([6]; 25 °C): 3.31 × 10^-10 mole/cm^2
- Γmax (surface excess concentration at surface saturation) ([6]; 40 °C): 3.28 × 10^-10 mole/cm^2
- pC20 [7]: 5.37
- am (area per molecule) ([8]; 25 °C): 50.1 Å^2
- am (area per molecule) ([8]; 40 °C): 50.6 Å^2

- Foam Height Initial [1]: 165 mm
- Foam Height Final [1]: 154 mm
- Krafft Point (0.1%) [3]: < 0 °C
- Increase (viscosity) ([13]; 3.0% thickener): 23 ×
- Increase (viscosity) ([13]; 5.0% thickener): 97 ×
Molecule: CCCCCCCCCCCCOCCCNC(=O)[C@H](O)[C@@H](O)[C@H](O[C@@H]1O[C@H](CO)[C@H](O)[C@H](O)[C@H]1O)[C@H](O)CO [C12 Oxypropyl D-Lactobionamide, Dodecyloxypropyl D-Lactobionamide]

Source: patent US5641480A, “Hair care compositions comprising heteroatom containing alkyl aldonamide compounds” (Lever Brothers Company, Division of Conopco, Inc., priority 1994, dated 1997)
